According to patent US10077261B2, “Imidazolin-5-one derivative useful as FASN inhibitors for the treatment of cancer” (Janssen Pharmaceutica NV, priority 2012, dated 2018):

Assays:
A2780 ovarian cells [1] = test: A2780 ovarian cell proliferation assay in lipid reduced medium, with palmitate (MTT); assay type: cell-based; conditions: Homo sapiens, A2780, 96 h; read-out: pIC50 A2780 Ovarian Cell, With Palmitate (converted)
Procedure, shortened: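 Seeded cells were switched next day to lipid-reduced serum, exposed to compound and 25 μM palmitate complexed with fatty-acid-free BSA, and incubated 96 h. Proliferation was then determined by MTT absorbance at 544 nm, with a best-fit curve of signal against concentration.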

[2] = target: T1, hFASN enzyme (full length) (Homo sapiens, UniProt P49327); test: Fatty Acid Synthase (FASN) inhibition scintillation proximity assay; assay type: biochemical; conditions: for inhibition at 10 µM: read-out: Human FASN % inhibition @ 10 μM, 10 μM test compound; for IC50: read-out: Human FASN pIC50 (converted)
T1 construct: 10 μL hFASN enzyme (full length, 300 ng, purified in house); made in house
T1 sequence (P49327 whole entry): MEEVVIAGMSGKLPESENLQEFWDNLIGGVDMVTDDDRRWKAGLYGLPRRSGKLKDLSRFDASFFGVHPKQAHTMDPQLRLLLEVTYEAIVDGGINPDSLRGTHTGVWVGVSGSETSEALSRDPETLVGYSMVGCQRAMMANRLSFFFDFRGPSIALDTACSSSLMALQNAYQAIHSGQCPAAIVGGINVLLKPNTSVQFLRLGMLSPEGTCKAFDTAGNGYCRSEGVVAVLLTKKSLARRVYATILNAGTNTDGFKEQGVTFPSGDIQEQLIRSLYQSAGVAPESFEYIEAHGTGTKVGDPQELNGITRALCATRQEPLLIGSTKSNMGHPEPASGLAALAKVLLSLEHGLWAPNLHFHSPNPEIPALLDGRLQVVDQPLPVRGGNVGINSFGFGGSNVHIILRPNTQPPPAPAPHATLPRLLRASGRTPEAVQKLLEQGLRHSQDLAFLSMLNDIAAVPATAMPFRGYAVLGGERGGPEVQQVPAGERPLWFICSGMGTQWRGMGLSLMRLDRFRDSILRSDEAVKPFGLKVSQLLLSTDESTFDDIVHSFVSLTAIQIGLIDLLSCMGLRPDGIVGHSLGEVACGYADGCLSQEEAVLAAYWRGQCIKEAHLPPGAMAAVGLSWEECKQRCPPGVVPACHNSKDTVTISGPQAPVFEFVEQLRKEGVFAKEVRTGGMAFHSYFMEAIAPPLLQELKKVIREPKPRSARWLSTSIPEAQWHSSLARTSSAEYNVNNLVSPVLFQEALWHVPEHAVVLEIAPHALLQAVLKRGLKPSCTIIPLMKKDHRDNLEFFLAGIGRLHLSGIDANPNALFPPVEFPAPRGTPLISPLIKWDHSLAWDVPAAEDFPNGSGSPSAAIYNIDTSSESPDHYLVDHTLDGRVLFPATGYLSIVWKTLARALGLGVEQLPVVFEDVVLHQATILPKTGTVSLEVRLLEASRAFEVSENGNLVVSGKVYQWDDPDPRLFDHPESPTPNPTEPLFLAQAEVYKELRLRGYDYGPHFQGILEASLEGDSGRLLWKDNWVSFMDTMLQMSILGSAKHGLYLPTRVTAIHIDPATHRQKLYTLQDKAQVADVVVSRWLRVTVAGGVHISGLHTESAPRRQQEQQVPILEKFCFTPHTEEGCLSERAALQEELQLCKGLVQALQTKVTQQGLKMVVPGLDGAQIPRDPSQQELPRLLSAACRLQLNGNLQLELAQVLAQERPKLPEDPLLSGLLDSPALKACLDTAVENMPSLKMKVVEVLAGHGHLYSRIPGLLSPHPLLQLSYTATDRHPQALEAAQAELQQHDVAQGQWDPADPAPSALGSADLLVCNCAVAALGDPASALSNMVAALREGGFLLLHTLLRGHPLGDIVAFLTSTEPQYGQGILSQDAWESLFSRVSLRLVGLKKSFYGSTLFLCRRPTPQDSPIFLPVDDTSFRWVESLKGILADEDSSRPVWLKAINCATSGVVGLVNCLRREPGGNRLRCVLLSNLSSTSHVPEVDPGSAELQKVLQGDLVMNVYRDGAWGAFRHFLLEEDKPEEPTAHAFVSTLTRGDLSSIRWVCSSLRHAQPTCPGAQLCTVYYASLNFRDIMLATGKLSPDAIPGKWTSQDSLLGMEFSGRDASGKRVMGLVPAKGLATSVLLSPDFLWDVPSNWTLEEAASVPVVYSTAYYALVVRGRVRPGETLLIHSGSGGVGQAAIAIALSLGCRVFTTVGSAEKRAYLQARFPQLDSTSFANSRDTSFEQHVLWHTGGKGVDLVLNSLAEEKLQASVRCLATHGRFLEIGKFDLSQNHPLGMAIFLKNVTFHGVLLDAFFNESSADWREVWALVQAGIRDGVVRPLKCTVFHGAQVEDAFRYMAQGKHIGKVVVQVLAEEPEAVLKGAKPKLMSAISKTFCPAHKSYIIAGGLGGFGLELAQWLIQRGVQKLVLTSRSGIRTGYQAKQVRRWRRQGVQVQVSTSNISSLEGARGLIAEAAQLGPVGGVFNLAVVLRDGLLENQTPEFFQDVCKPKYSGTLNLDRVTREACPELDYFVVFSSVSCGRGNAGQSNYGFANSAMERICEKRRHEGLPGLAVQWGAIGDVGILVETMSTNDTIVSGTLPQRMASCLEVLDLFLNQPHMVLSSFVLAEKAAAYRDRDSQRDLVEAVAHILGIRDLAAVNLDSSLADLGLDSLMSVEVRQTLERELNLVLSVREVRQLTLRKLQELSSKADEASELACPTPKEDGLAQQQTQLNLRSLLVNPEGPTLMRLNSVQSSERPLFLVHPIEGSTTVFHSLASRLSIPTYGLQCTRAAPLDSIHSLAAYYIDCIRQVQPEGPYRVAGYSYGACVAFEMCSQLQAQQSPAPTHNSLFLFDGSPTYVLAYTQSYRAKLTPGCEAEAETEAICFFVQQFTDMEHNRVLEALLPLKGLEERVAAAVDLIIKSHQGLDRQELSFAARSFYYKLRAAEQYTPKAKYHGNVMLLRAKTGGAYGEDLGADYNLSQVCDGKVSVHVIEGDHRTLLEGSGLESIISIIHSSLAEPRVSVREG
Procedure, shortened: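 Compounds at 0.01–30 μM were mixed with 300 ng purified full-length enzyme in 100 mM KH2PO4 pH 7.5, 1 mM DTT. Substrates ³H-acetyl-CoA and malonyl-CoA were then converted, and bead addition stopped the reaction. Signal was normalised to low and high plate controls and fitted by 4-parameter nonlinear regression.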

[3] = tested on: PC-3M-Luc-C6 prostate cells; test: In vitro PC-3M-Luc-C6 prostate cell proliferation assay in lipid reduced medium; assay type: cell-based; conditions: 96 h, read-out: pIC50 PC-3M-Luc-C6 prostate cell (converted)
Description: PC-3M-Luc-C6 prostate cells were obtained from Xenogen Corporation. Cells were maintained in MEM supplemented with 10% Fetal Calf Serum (FCS, Hyclone), 2 mM glutamine, 1 mM sodium pyruvate, 1% BME vitamins (available from for example, Sigma Aldrich), 0.1 mM non Essential Amino Acid and 50 μg/ml Gentamicin. The cells were passaged twice a week.
The next day 10 μl test compound/DMSO diluted in medium was added (3E-5M, 1E-5M, 3E-6M, 1E-6M, 3E-7M, 1E-7M, 3E-8M, 1E-8M final concentration). Compounds were tested in duplicate. After 96 h incubation at 37° C., 5% CO2 25 μl ATP-glow mix was added. The plate was incubated for 30 min at 37° C. and luminescence was measured with the Envision.
Analysis: Determination of pIC50 Values
pIC50 values were calculated as follows.
where mLC and mHC are the means of the low control wells and high control wells on the plate, after manual exclusion of outliers. The relation between the % Controlmin values and concentration was fitted to a 4-parameter logistic curve using a non-linear least squares regression method to determine the pIC50 value. Outlying data points were excluded manually to get a correct fit. The pIC50 corresponds to −log 10(IC50), if the IC50 is expressed in molar units (http://www.ncbi.nlm.nih.gov/books/NBK91994). The IC50 parameter was always determined by non-linear regression, but one or more of the other parameters may have been held fixed on a relevant input value, such as 0 for the bottom values.

[4] = target: Fatty Acid Synthase Keto-reductase Domain (FASN KR) (Homo sapiens, UniProt P49327); test: Fatty Acid Synthase keto-reductase domain (FASN KR) inhibition, NADPH oxidation at 340 nm
Fatty Acid Synthase Keto-reductase Domain (FASN KR), sequence (P49327 whole entry, the tested form may be a part): as the sequence (P49327 whole entry) above
Description: After 20 minutes incubation at room temperature the plate was measured again (T2).
The decrease in absorbance was calculated as (Absorbance before incubation T1)−(Absorbance following incubation T2).
A plot of Controlmin versus test compound concentration was fitted to a 4-parameter logistic curve using a non-linear least squares regression method.

A2780 ovarian cells [5] = test: A2780 ovarian cell proliferation assay in lipid reduced medium, without palmitate (MTT); assay type: cell-based; conditions: Homo sapiens, A2780, 96 h; read-out: pIC50 A2780 Ovarian Cell, Without Palmitate (converted)
[6] = tested on: LNCaP-Vancouver prostate cells; test: In vitro LNCaP Vancouver prostate cell proliferation assay in lipid reduced medium; assay type: cell-based; conditions: read-out: pIC50 LNCaP_Vancouver prostate cell (converted)

SMILES | IC50 (A2780 ovarian cells [1]) | inhibition at 10 µM [2] | IC50 [2] | IC50 [3] | IC50 [4] | IC50 (A2780 ovarian cells [5]) | IC50 [6]
O=C(C1CC1)N1CC[C@@H](CN2C(=O)C3(CC3)N=C2c2ccc(-c3c[nH]c4ccccc34)cc2)C1 [compound 314, (R)-5-(4-(1H-indol-3-yl)phenyl)-6-((1-(cyclopropanecarbonyl)pyrrolidin-3-yl)methyl)-4,6-diazaspiro[2.4]hept-4-en-7-one] |  |  |  | 57.5 nM |  |  | 309 nM
Cn1ncc2cc(-c3ccc(C4=NC5(CC5)C(=O)N4C[C@@H]4CCN(C(=O)C5CC5)C4)cc3F)ccc21 [compound 405, 6-{[(3R)-1-(Cyclopropylcarbonyl)pyrrolidin-3-yl]methyl}-5-[3-fluoro-4-(1-methyl-1H-indazol-5-yl)phenyl]-4,6-diazaspiro[2.4]hept-4-en-7-one] | > 10000 nM |  |  | 457 nM |  | 479 nM | 
O=C(C1CC1)N1CC(CN2C(=O)C3(CC3)N=C2c2ccc(-c3cccc4[nH]ncc34)c(F)c2)C1 [compound 443, 6-{[1-(Cyclopropylcarbonyl)azetidin-3-yl]methyl}-5-[3-fluoro-4-(1H-indazol-4-yl)phenyl]-4,6-diazaspiro[2.4]hept-4-en-7-one] | > 10000 nM | 88% | 912 nM | 851 nM | 1050 nM | 794 nM | 
O=C(C1CC1)N1CC[C@@H](CN2C(=O)C3(CC3)N=C2c2ccc(-c3nc4ccccc4[nH]3)cc2)C1 [compound 497, 5-[4-(1H-Benzimidazol-2-yl)phenyl]-6-{[(3R)-1-(cyclopropylcarbonyl)pyrrolidin-3-yl]methyl}-4,6-diazaspiro[2.4]hept-4-en-7-one] |  |  |  | 479 nM |  |  | 5370 nM
Cc1cc(-c2ccc3c(cnn3C)c2)ccc1C1=NC2(CC2)C(=O)N1CC1CN(C(=O)C2(O)CC2)C1 [compound 498, 6-({1-[(1-Hydroxycyclopropyl)carbonyl]-azetidin-3-yl}methyl)-5-[2-methyl-4-(1-methyl-1H-indazol-5-yl)phenyl]-4,6-diazaspiro[2.4]hept-4-en-7-one] |  | 99% |  | 234 nM |  |  | 
Cc1cc(-c2ccc3cc(OC(C)C)ccc3c2)ccc1C1=NC2(CC2)C(=O)N1CC1CN(C(=O)C2(C)CC2)C1 [compound 581, 6-({1-[(1-Methylcyclopropyl)carbonyl]azetidin-3-yl}methyl)-5-{2-methyl-4-[6-(1-methylethoxy)naphthalen-2-yl]phenyl}-4,6-diazaspiro[2.4]hept-4-en-7-one] | 4270 nM | 93% | 316 nM | ~295 nM | 631 nM | ~200 nM | 
Cc1cc(-c2ccc3c(c2)c(CO)nn3C)ccc1C1=NC2(CC2)C(=O)N1CC1CN(C(=O)C2CC2)C1 [compound 586, 6-{[1-(Cyclopropylcarbonyl)azetidin-3-yl]methyl}-5-{4-[3-(hydroxymethyl)-1-methyl-1H-indazol-5-yl]-2-methylphenyl}-4,6-diazaspiro[2.4]hept-4-en-7-one] | > 10000 nM | 93% | 525 nM | 1020 nM | 1660 nM | ~851 nM | 
Cc1cc(-c2ccc3c(c2)c(Cl)nn3C)ccc1C1=NC2(CC2)C(=O)N1CC1CN(C(=O)C2CC2)C1 [compound 591, 5-[4-(3-Chloro-1-methyl-1H-indazol-5-yl)-2-methylphenyl]-6-{[1-(cyclopropylcarbonyl)azetidin-3-yl]methyl}-4,6-diazaspiro[2.4]hept-4-en-7-one] | > 10000 nM | 93% | 195 nM | 372 nM | 1050 nM | ~347 nM | 
COC(=O)N1CC2(C1)N=C(c1ccc(-c3ccc4c(cnn4C)c3)cc1)N(C[C@@H]1CCN(C(=O)C3CC3)C1)C2=O [compound 737, Methyl 7-{[(3R)-1-(cyclopropylcarbonyl)pyrrolidin-3-yl]methyl}-6-[4-(1-methyl-1H-indazol-5-yl)phenyl]-8-oxo-2,5,7-triazaspiro[3.4]oct-5-ene-2-carboxylate] |  |  |  | 708 nM |  |  | ~3720 nM
COCCN1CCC2(CC1)N=C(c1ccc(-c3ccc4occc4c3)cc1)N(C[C@@H]1CCN(C(=O)C3CC3)C1)C2=O [compound 749, 2-[4-(1-Benzofurann-5-yl)phenyl]-3-{[(3R)-1-(cyclopropylcarbonyl)pyrrolidin-3-yl]methyl}-8-(2-methoxyethyl)-1,3,8-triazaspiro[4.5]dec-1-en-4-one] | > 10000 nM | 97% | 138 nM | 759 nM | 603 nM | 1550 nM | 

The remaining compounds from weak to strong by IC50 [4], led by results:

IC50 (A2780 ovarian cells [1]) | inhibition at 10 µM [2] | IC50 [2] | IC50 [3] | IC50 [4] | IC50 (A2780 ovarian cells [5]) | IC50 [6] | SMILES
> 10000 nM | 100% | 204 nM | ~309 nM | 603 nM | ~195 nM |  | Cc1cc(-c2ccc3c(cnn3C)c2)ccc1C1=NC2(CC2)C(=O)N1CC1CN(C(=O)C(C)(C)CO)C1 [compound 546, 6-{[1-(3-Hydroxy-2,2-dimethylpropanoyl)azetidin-3-yl]methyl}-5-[2-methyl-4-(1-methyl-1H-indazol-5-yl)phenyl]-4,6-diazaspiro[2.4]hept-4-en-7-one]
6310 nM | 102% | 186 nM | ~759 nM | 589 nM | 457 nM |  | Cc1cc(-c2ccc3cc(C)c(Cl)nc3c2)ccc1C1=NC2(CC2)C(=O)N1CC1CN(C(=O)C2(C)CC2)C1 [compound 596]
> 10000 nM | 94% | 200 nM | 513 nM | 339 nM | 257 nM |  | O=C(C1CC1)N1CC(CN2C(=O)C3(CC3)N=C2c2ccc(-c3ccc4cc[nH]c4c3)c(F)c2)C1 [compound 442, 6-{[1-(Cyclopropylcarbonyl)azetidin-3-yl]methyl}-5-[3-fluoro-4-(1H-indol-6-yl)phenyl]-4,6-diazaspiro[2.4]hept-4-en-7-one]
> 10000 nM | 101% | 107 nM |  | 316 nM | 240 nM | 1320 nM | O=C(C1CC1)N1CC[C@@H](CN2C(=O)C3(CCCC3)N=C2c2ccc(-c3cnc4[nH]ccc4c3)cc2F)C1 [compound 881, (R)-3-((1-(cyclopropanecarbonyl)pyrrolidin-3-yl)methyl)-2-(2-fluoro-4-(1H-pyrrolo[2,3-b]pyridin-5-yl)phenyl)-1,3-diazaspiro[4.4]non-1-en-4-one]
> 10000 nM | 105% | 51.3 nM | 112 nM | 251 nM | 120 nM |  | Cc1cc2cc(-c3ccc(C4=NC5(CC5)C(=O)N4CC4CN(C(=O)C5CC5)C4)c(C)c3)ccc2[nH]1 [compound 263, 6-((1-(cyclopropanecarbonyl)azetidin-3-yl)methyl)-5-(2-methyl-4-(2-methyl-1H-indol-5-yl)phenyl)-4,6-diazaspiro[2.4]hept-4-en-7-one]
> 10000 nM | 99% | 112 nM | 100 nM | 162 nM | 83.2 nM |  | O=C(Nc1cccc(-c2ccc(C3=NC4(CC4)C(=O)N3C[C@@H]3CCN(C(=O)C4CC4)C3)c(F)c2)c1)C1CC1 [compound 585, N-[4′-(6-{[(3R)-1-(Cyclopropylcarbonyl)pyrrolidin-3-yl]methyl}-7-oxo-4,6-diazaspiro[2.4]hept-4-en-5-yl)-3′-fluorobiphenyl-3-yl]cyclopropanecarboxamide]
> 10000 nM | 100% | 66.1 nM | 52.5 nM | 123 nM | ~70.8 nM |  | O=C(C1CC1)N1CC[C@@H](CN2C(=O)C3(CC3)N=C2c2ccc(-c3cccc(NS(=O)(=O)C4CC4)c3)cc2F)C1 [compound 318]
> 10000 nM | 109% | 45.7 nM | ~661 nM | 89.1 nM | 977 nM |  | O=C(C1CC1)N1CC[C@@H](CN2C(=O)C3(CCCC3)N=C2c2ccc(-c3ccc4occc4c3)cc2)C1 [compound 2, 2-[4-(1-Benzofuran-5-yl)phenyl]-3-{[(3R)-1-(cyclopropylcarbonyl)pyrrolidin-3-yl]methyl-}3-diazaspiro[4.4]non-1-en-4-one]
